Measured values taken from patent US12077503B2, “Substituted cyclic amides and their use as herbicides” (FMC CORPORATION, priority 2015, dated 2024).

Experiments:
Type in all cases: in vivo
[1] = system: barnyardgrass (Echinochloa crus-galli); assay: Test A postemergence
Method in brief: (§1)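 Visual injury scores from 0, no effect, to 100, complete control, were assigned versus untreated controls roughly 10 d after treatment in the greenhouse. Test chemicals, formulated with surfactant in a non-phytotoxic solvent, were applied to planted seeds as a preemergence soil spray or postemergence to one- to two-leaf plants 2 to 10 cm tall, in loam–sand soil.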

corn (Zea mays) = assay: Test A postemergence
Method in brief: as §1

[2] = system: giant foxtail (Setaria faberii); assay: Test A postemergence; settings: postemergence, 0 to 100 scale (0 no effect, 100 complete control)
Method in brief: as §1

[3] = system: ragweed (common ragweed, Ambrosia elatior); assay: Test A postemergence; settings: postemergence, 0 to 100 scale (0 no effect, 100 complete control)
Method in brief: as §1

[4] = system: wheat (Triticum aestivum); assay: Test A postemergence; settings: postemergence, 0 to 100 scale (0 no effect, 100 complete control)
Method in brief: as §1

[5] = system: blackgrass (Alopecurus myosuroides); assay: Test A postemergence
Method in brief: as §1

[6] = system: Galium (catchweed bedstraw, Galium aparine); assay: Test A postemergence; settings: postemergence, 0 to 100 scale (0 no effect, 100 complete control)
Method in brief: as §1

Kochia (Kochia scoparia) [7] = assay: Test A postemergence; settings: postemergence, 0 to 100 scale (0 no effect, 100 complete control)
Method in brief: as §1

[8] = system: pigweed (Amaranthus retroflexus); assay: Test A postemergence; settings: postemergence, 0 to 100 scale (0 no effect, 100 complete control)
Method in brief: as §1

[9] = system: ryegrass, Italian (Italian ryegrass, Lolium multiflorum); assay: Test A postemergence; settings: postemergence, 0 to 100 scale (0 no effect, 100 complete control)
Method in brief: as §1

[10] = system: barnyardgrass (Echinochloa crus-galli); assay: Test B flooded paddy test; settings: Flood, 250 g ai/ha; 0 to 100 scale where 0 is no effect and 100 is complete control; 13 to 15 d
Method in brief: (§2)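 Response scored visually against untreated controls, 0 = no effect and 100 = complete control, 13–15 d after treatment in the greenhouse. Compounds added to paddy water held 3 cm above soil surface. Treatment given at 2-leaf stage.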

rice (Oryra sativa) = assay: Test B flooded paddy test; settings: Flood, 250 g ai/ha; 0 to 100 scale where 0 is no effect and 100 is complete control; 13 to 15 d
Method in brief: as §2

[11] = system: sedge, umbrella (small-flower umbrella sedge, Cyperus difformis); assay: Test B flooded paddy test; settings: Flood, 250 g ai/ha; 0 to 100 scale where 0 is no effect and 100 is complete control; 13 to 15 d
Method in brief: as §2

[12] = system: ducksalad (Heteranthera limosa); assay: Test B flooded paddy test; settings: Flood, 250 g ai/ha; 0 to 100 scale where 0 is no effect and 100 is complete control; 13 to 15 d
Method in brief: as §2

[13] = system: barnyardgrass (Echinochloa crus-galli); assay: Test A preemergence
Method in brief: as §1

[14] = system: giant foxtail (Setaria faberii); assay: Test A preemergence
Method in brief: as §1

[15] = system: ragweed (common ragweed, Ambrosia elatior); assay: Test A preemergence
Method in brief: as §1

Kochia (Kochia scoparia) [16] = assay: Test A preemergence
Method in brief: as §1

[17] = system: pigweed (Amaranthus retroflexus); assay: Test A preemergence
[18] = system: ryegrass, Italian (Italian ryegrass, Lolium multiflorum); assay: Test A preemergence
Method in brief: as §1

[19] = 125 g ai/ha, postemergence, visual rating after approx. 10 d, 0 to 100 scale (0 no effect, 100 complete control)
[20] = Postemergence, 500 g ai/ha, 0 to 100 scale where 0 is no effect and 100 is complete control
[21] = 125 g ai/ha, visual rating after approx. 10 d
[22] = 500 g ai/ha, visual injury, approx. 10 d
[23] = 125 g ai/ha, Preemergence, visual injury after approximately 10 d, 0 to 100 scale where 0 is no effect and 100 is complete control
[24] = 500 g ai/ha, preemergence, 0 to 100 scale, 0 = no effect, 100 = complete control
[25] = 500 g ai/ha, postemergence, visual injury, 0 to 100 scale (0 no effect, 100 complete control), approx. 10 d

Row | Structure (SMILES) | Plant response rating, Barnyardgrass [1, 19] | Plant response rating, Corn (corn (Zea mays); [19]) | Plant response rating, Foxtail, Giant [2, 21] | Plant response rating, Foxtail, Giant [2, 22] | Plant response rating, Ragweed [3, 21] | Plant response rating, Ragweed [3, 22] | Plant response rating, Wheat [4, 21] | Plant response rating, Wheat [4, 22] | Plant response rating, Blackgrass [5, 19] | Plant response rating, Galium [6, 21] | Plant response rating, Galium [6, 22] | Plant response rating, Kochia (Kochia (Kochia scoparia) [7]; [21]) | Plant response rating, Kochia (Kochia (Kochia scoparia) [7]; [22]) | Plant response rating, Pigweed [8, 21] | Plant response rating, Pigweed [8, 22] | Plant response rating, Ryegrass, Italian [9, 21] | Plant response rating, Ryegrass, Italian [9, 22] | Plant response rating, Barnyardgrass [10] | Plant response rating, Rice (rice (Oryra sativa)) | Plant response rating, Sedge, Umbrella [11] | further results
1 | Cc1cc(C2CNC(=O)C2C(=O)Nc2ccccc2F)cs1 (stereo not drawn) [Compound 630] | 80 | 0 | 30 | 30 | 0 | 0 | 0 | 20 | 0 | 0 | 40 | 0 | 0 | 0 | 0 | 0 | 0 | 20 | 0 | 0 | Plant response rating, Barnyardgrass [1, 20]: 90; Plant response rating, Corn (corn (Zea mays); [20]): 20; Plant response rating, Blackgrass [5, 20]: 20; Plant response rating, Ducksalad [12]: 95; Plant response rating, Barnyardgrass [13, 23]: 90; Plant response rating, Barnyardgrass [13, 24]: 90; Plant response rating, Foxtail, Giant [14, 23]: 80; Plant response rating, Foxtail, Giant [14, 24]: 90; Plant response rating, Ragweed [15, 23]: 0; Plant response rating, Ragweed [15, 24]: 30; Plant response rating, Kochia (Kochia (Kochia scoparia) [16]; [23]): 0; Plant response rating, Kochia (Kochia (Kochia scoparia) [16]; [24]): 50; Plant response rating, Pigweed [17, 23]: 0; Plant response rating, Pigweed [17, 24]: 0; Plant response rating, Ryegrass, Italian [18, 23]: 0; Plant response rating, Ryegrass, Italian [18, 24]: 20
2 | O=C1NCC(c2csc(Br)c2)C1C(=O)Nc1ccccc1F (stereo not drawn) [Compound 648] | 70 | 0 | 10 | 50 | 0 | 30 | 0 | 0 | 30 | 20 | 60 | 0 | 0 | 30 | 50 | 30 | 50 | 20 | 20 | 0 | Plant response rating, Barnyardgrass [1, 25]: 80; Plant response rating, Corn (corn (Zea mays); [25]): 0; Plant response rating, Blackgrass [5, 25]: 50; Plant response rating, Ducksalad [12]: 100; Plant response rating, Barnyardgrass [13, 23]: 70; Plant response rating, Barnyardgrass [13, 24]: 90; Plant response rating, Foxtail, Giant [14, 23]: 60; Plant response rating, Foxtail, Giant [14, 24]: 80; Plant response rating, Ragweed [15, 23]: 0; Plant response rating, Ragweed [15, 24]: 20; Plant response rating, Kochia (Kochia (Kochia scoparia) [16]; [23]): 0; Plant response rating, Kochia (Kochia (Kochia scoparia) [16]; [24]): 50; Plant response rating, Pigweed [17, 23]: 0; Plant response rating, Pigweed [17, 24]: 40; Plant response rating, Ryegrass, Italian [18, 23]: 30; Plant response rating, Ryegrass, Italian [18, 24]: 40
3 | CN1CC(c2cc(F)cc(F)c2)C(C(=O)Nc2cccc3c2CCC3)C1=O (stereo not drawn) [Compound 659] | 70 | 0 | 90 | 90 | 0 | 0 | 0 | 50 | 40 | 0 | 20 | 20 | 20 | 0 | 0 | 0 | 60 | 60 | 15 | 0 | Plant response rating, Barnyardgrass [1, 25]: 90; Plant response rating, Corn (corn (Zea mays); [25]): 50; Plant response rating, Blackgrass [5, 25]: 50; Plant response rating, Ducksalad [12]: 80; Plant response rating, Barnyardgrass [13, 23]: 90; Plant response rating, Barnyardgrass [13, 24]: 90; Plant response rating, Foxtail, Giant [14, 23]: 90; Plant response rating, Foxtail, Giant [14, 24]: 90; Plant response rating, Ragweed [15, 23]: 0; Plant response rating, Ragweed [15, 24]: 0; Plant response rating, Kochia (Kochia (Kochia scoparia) [16]; [23]): 0; Plant response rating, Kochia (Kochia (Kochia scoparia) [16]; [24]): 0; Plant response rating, Pigweed [17, 23]: 0; Plant response rating, Pigweed [17, 24]: 0; Plant response rating, Ryegrass, Italian [18, 23]: 0; Plant response rating, Ryegrass, Italian [18, 24]: 30
